According to PubChem BioAssay AID248 (DTP/NCI, 2004):
Inconclusive results and toxic doses are left out. Rule as the data show it: active = T/C of 150% or more; inactive = T/C below 125%.

System: L1210 leukemia ip in BDF1 mice, survival T/C
Experiment: NCI In Vivo Anticancer Drug Screen. Data for tumor model L1210 Leukemia (intraperitoneal) in B6D2F1 (BDF1) mice
Conditions: endpoint: mean survival time, higher = longer survival
In short: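 Transplantable tumor model; survival measured in treated vs vehicle control mice. Value = treated/control.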

[1] = dose: 100.0 mg/kg/injection, schedule: Q01DX009 (ip), vehicle: Klucel (hydroxypropylcellulose) (HPC)
[2] = dose: 100.0 mg/kg/injection, schedule: Q04DX003 (ip), vehicle: Klucel (hydroxypropylcellulose) (HPC)
[3] = dose: 200.0 mg/kg/injection, schedule: Q01DX009 (ip), vehicle: Klucel (hydroxypropylcellulose) (HPC)
[4] = dose: 400.0 mg/kg/injection, schedule: Q01DX009 (ip), vehicle: Klucel (hydroxypropylcellulose) (HPC)
[5] = dose: 100.0 mg/kg/injection, schedule: Q01DX001 (ip), vehicle: saline
[6] = dose: 200.0 mg/kg/injection, schedule: Q01DX001 (ip), vehicle: saline
[7] = dose: 400.0 mg/kg/injection, schedule: Q01DX001 (ip), vehicle: saline
[8] = dose: 5.0 mg/kg/injection, schedule: Q01DX001 (ip), vehicle: saline
[9] = dose: 10.0 mg/kg/injection, schedule: Q01DX001 (ip), vehicle: saline
[10] = dose: 20.0 mg/kg/injection, schedule: Q01DX001 (ip), vehicle: saline
[11] = dose: 40.0 mg/kg/injection, schedule: Q01DX001 (ip), vehicle: saline
[12] = dose: 100.0 mg/kg/injection, schedule: Q04DX002 (ip), vehicle: Klucel (hydroxypropylcellulose) (HPC)
[13] = dose: 200.0 mg/kg/injection, schedule: Q04DX002 (ip), vehicle: Klucel (hydroxypropylcellulose) (HPC)
[14] = dose: 400.0 mg/kg/injection, schedule: Q04DX002 (ip), vehicle: Klucel (hydroxypropylcellulose) (HPC)
[15] = dose: 50.0 mg/kg/injection, schedule: Q01DX001 (ip), vehicle: saline

Measured: T/C

Brc1cnc(OCc2ccccc2)nc1OCc1ccccc1
inactive: [1] 91 % of control | dose: 100.0 mg/kg/injection, schedule: Q01DX009 (ip), vehicle: saline with Tween-80 103 % of control | [2] 96 % of control | dose: 100.0 mg/kg/injection, schedule: Q04DX003 (ip), vehicle: saline with Tween-80 103 % of control | [3] 102 % of control | dose: 200.0 mg/kg/injection, schedule: Q01DX009 (ip), vehicle: saline with Tween-80 102 % of control | dose: 200.0 mg/kg/injection, schedule: Q04DX003 (ip), vehicle: Klucel (hydroxypropylcellulose) (HPC) 100 % of control | dose: 200.0 mg/kg/injection, schedule: Q04DX003 (ip), vehicle: saline with Tween-80 97 % of control | [4] 104 % of control | dose: 400.0 mg/kg/injection, schedule: Q01DX009 (ip), vehicle: saline with Tween-80 101 % of control | dose: 400.0 mg/kg/injection, schedule: Q04DX003 (ip), vehicle: Klucel (hydroxypropylcellulose) (HPC) 93 % of control | dose: 400.0 mg/kg/injection, schedule: Q04DX003 (ip), vehicle: saline with Tween-80 92 % of control

NC(=O)N(N)CCO
inactive: [5] 102 % of control | [6] 91 % of control | [7] 93 % of control

Nc1ncnc2c1c(I)cn2C1OC(CO)C(O)C1O (stereo not given)
inactive: [8] 102 % of control | [9] 101 % of control | [10] 103 % of control | [11] 105 % of control

Cc1ccc(S(=O)(=O)NCc2cccc([N+](=O)[O-])c2)cc1
inactive: dose: 100.0 mg/kg/injection, schedule: Q01DX001 (ip), vehicle: Klucel (hydroxypropylcellulose) (HPC) 102 % of control | dose: 200.0 mg/kg/injection, schedule: Q01DX001 (ip), vehicle: Klucel (hydroxypropylcellulose) (HPC) 96 % of control | dose: 400.0 mg/kg/injection, schedule: Q01DX001 (ip), vehicle: Klucel (hydroxypropylcellulose) (HPC) 96 % of control

CC(=O)NNC(N)=S
inactive: [12] 87 % of control | [13] 87 % of control | [14] 97 % of control

Cc1ccc(NC(=O)CI)cc1
inactive: dose: 50.0 mg/kg/injection, schedule: Q04DX002 (ip), vehicle: other 100 % of control

N=C(Oc1c(Cl)c(Cl)c(Cl)c(Cl)c1Cl)Oc1c(Cl)c(Cl)c(Cl)c(Cl)c1Cl
inactive: [1] 100 % of control | [3] 111 % of control | [4] 102 % of control

c1ccc2c(c1)ccc1nc3ccc4ccccc4c3cc12
inactive: [8] 86 % of control | [10] 97 % of control | [11] 95 % of control | dose: 80.0 mg/kg/injection, schedule: Q01DX001 (ip), vehicle: saline 97 % of control

CN(CS(=O)(=O)O)c1cc(F)cc(F)c1
inactive: [15] 102 % of control | [5] 102 % of control | [6] 98 % of control | [7] 98 % of control

CCOC(=O)C1C(CCC#N)C(=O)CCC1(C#N)c1ccccc1 (stereo not given)
inactive: dose: 100.0 mg/kg/injection, schedule: Q04DX003 (ip), vehicle: acetone 98 % of control | dose: 200.0 mg/kg/injection, schedule: Q04DX003 (ip), vehicle: acetone 95 % of control | dose: 400.0 mg/kg/injection, schedule: Q04DX003 (ip), vehicle: acetone 98 % of control

CC(C)C(=O)NN
inactive: dose: 100.0 mg/kg/injection, schedule: Q04DX003 (ip), vehicle: saline 98 % of control | dose: 200.0 mg/kg/injection, schedule: Q04DX003 (ip), vehicle: saline 101 % of control | dose: 400.0 mg/kg/injection, schedule: Q04DX003 (ip), vehicle: saline 101 % of control

O=S(=O)(F)c1ccccc1S(=O)(=O)Cl
inactive: dose: 25.0 mg/kg/injection, schedule: Q04DX003 (ip), vehicle: Klucel (hydroxypropylcellulose) (HPC) 97 % of control | dose: 50.0 mg/kg/injection, schedule: Q04DX003 (ip), vehicle: Klucel (hydroxypropylcellulose) (HPC) 92 % of control | dose: 100.0 mg/kg/injection, schedule: Q01DX001 (ip), vehicle: carboxymethylcellulose (CMC) 95 % of control | [2] 92 % of control

C[C@]12CC[C@@H]3c4ccc(Oc5nc(N6CC6)nc(N6CC6)n5)cc4CC[C@H]3[C@@H]1CCC2=O
inactive: dose: 25.0 mg/kg/injection, schedule: Q01DX009 (ip), vehicle: steriod suspending solution 101 % of control | dose: 25.0 mg/kg/injection, schedule: Q01DX009 (oral), vehicle: carboxymethylcellulose (CMC) 106 % of control | dose: 25.0 mg/kg/injection, schedule: Q04DX003 (sc), vehicle: steriod suspending solution 106 % of control | dose: 50.0 mg/kg/injection, schedule: Q01DX009 (oral), vehicle: carboxymethylcellulose (CMC) 101 % of control | dose: 50.0 mg/kg/injection, schedule: Q04DX003 (sc), vehicle: steriod suspending solution 98 % of control | dose: 100.0 mg/kg/injection, schedule: Q01DX001 (sc), vehicle: steriod suspending solution 105 % of control | dose: 100.0 mg/kg/injection, schedule: Q01DX009 (oral), vehicle: carboxymethylcellulose (CMC) 104 % of control | dose: 100.0 mg/kg/injection, schedule: Q04DX003 (sc), vehicle: steriod suspending solution 101 % of control | dose: 200.0 mg/kg/injection, schedule: Q01DX001 (sc), vehicle: steriod suspending solution 118 % of control | dose: 400.0 mg/kg/injection, schedule: Q01DX001 (sc), vehicle: steriod suspending solution 107 % of control

Cc1ccc(C(=O)Cc2ccc(C#N)cc2)cc1
inactive: [15] 98 % of control | [5] 96 % of control | [6] 104 % of control | [7] 98 % of control

O=C1OCCOC1=O
inactive: dose: 75.0 mg/kg/injection, schedule: Q01DX001 (ip), vehicle: other 90 % of control | dose: 150.0 mg/kg/injection, schedule: Q01DX001 (ip), vehicle: other 95 % of control | dose: 300.0 mg/kg/injection, schedule: Q01DX001 (ip), vehicle: other 95 % of control

COc1ccc(C(=O)/C=C/c2cccc(OC)c2O)cc1
inactive: dose: 75.0 mg/kg/injection, schedule: Q04DX003 (ip), vehicle: saline 101 % of control | dose: 150.0 mg/kg/injection, schedule: Q04DX003 (ip), vehicle: saline 91 % of control | dose: 300.0 mg/kg/injection, schedule: Q04DX003 (ip), vehicle: saline 101 % of control

CC1C(c2ccccc2)N1P(=O)(c1ccccc1)c1ccccc1 (stereo not given)
inactive: dose: 100.0 mg/kg/injection, schedule: Q04DX003 (sc), vehicle: carboxymethylcellulose (CMC) 102 % of control | dose: 200.0 mg/kg/injection, schedule: Q04DX003 (sc), vehicle: carboxymethylcellulose (CMC) 104 % of control | dose: 400.0 mg/kg/injection, schedule: Q04DX003 (sc), vehicle: carboxymethylcellulose (CMC) 98 % of control

CC(C)c1ccc(/C=N/NC(=S)Nc2ccccc2)cc1
inactive: [1] 93 % of control | [3] 93 % of control | [4] 90 % of control

O=C(Nc1ccccc1)Nc1ccc([N+](=O)[O-])cc1
inactive: [1] 91 % of control | dose: 100.0 mg/kg/injection, schedule: Q04DX003 (ip), vehicle: other 93 % of control | [3] 96 % of control | dose: 200.0 mg/kg/injection, schedule: Q04DX003 (ip), vehicle: other 100 % of control | [4] 86 % of control | dose: 400.0 mg/kg/injection, schedule: Q04DX003 (ip), vehicle: other 100 % of control

CCOC(=O)COc1cc([N+](=O)[O-])c(Cl)cc1Cl
inactive: [12] 98 % of control | [13] 98 % of control | [14] 98 % of control

O=C1CCN(Cl)C(=O)N1Cl
inactive: [8] 93 % of control | [9] 95 % of control | [10] 97 % of control

CNC(Cc1ccccc1)c1ccco1 (stereo not given)
inactive: dose: 50.0 mg/kg/injection, schedule: Q01DX009 (ip), vehicle: Klucel (hydroxypropylcellulose) (HPC) 104 % of control | [1] 104 % of control | dose: 100.0 mg/kg/injection, schedule: Q04DX002 (ip), vehicle: saline with Tween-80 107 % of control | [3] 102 % of control | dose: 200.0 mg/kg/injection, schedule: Q04DX002 (ip), vehicle: saline with Tween-80 110 % of control

[O-][n+]1ccccc1Br
inactive: dose: 50.0 mg/kg/injection, schedule: Q01DX009 (ip), vehicle: water 104 % of control | dose: 100.0 mg/kg/injection, schedule: Q01DX009 (ip), vehicle: water 98 % of control | dose: 100.0 mg/kg/injection, schedule: Q04DX003 (ip), vehicle: water 95 % of control | dose: 150.0 mg/kg/injection, schedule: Q01DX009 (ip), vehicle: water 95 % of control | dose: 200.0 mg/kg/injection, schedule: Q04DX003 (ip), vehicle: water 115 % of control
